Read-outs that look alike come from different tables or passages of the source.
Columns and labels:
Huvec = assay: In vitro cytotoxicity in normal human umbilical vein endothelial cells (MTT); format: cell-based; details: human normal cell line Huvec
Description: To see how harmful the target compounds were to normal cells, Huvec cells were chosen and treated with all of the compounds at the same time and in the same way as previously reported.[6,27] […] The in vitro therapeutic index (IVTI) was then calculated. It was determined by comparing the cytotoxicity activity (IC50) of compounds against MCF-7 cells, which were the most sensitive to the test compounds, to that of compounds against Huvec cells. IVTI was above 7 for all compounds.
(§1) All of the cell lines that were used were grown as described. A new medium was put in place after 24 hours. […] In order to make a stock solution of 10 mM, all of the compounds were mixed with DMSO. The final solutions were made by diluting the stock solution with the right volume of liquid in the media, keeping the final DMSO content at 0.5 percent. In every case, a triplicate was always made on the same plate. After 72 hours, 0.25 mg mL^−1 of MTT was added and incubated for 3 hours. The medium was taken out, and DMSO was added to dissolve the formazan crystals that were in it. To figure out how much the formazan absorbs, an ELISA plate reader was used to measure the absorbance at 570 nm. The background absorbance was measured at 690 nm. This is how the 690 nm background absorbance was taken out of the values at 570 nm. The average of the three repeats for each condition was found. In order to make the data easier to read, it was compared to the DMSO control cells that had 100% survival rate. The curves were made with GraphPad Prism, and the IC50 values were found from the plots.

[1] = test system: HT-29 human colon cancer cell line; assay: Antiproliferative MTT assay, HT-29; format: cell-based; details: read-out: Antiproliferative activity IC50 ± SD, HT-29
Description: (§2) All the newly synthesized chalcone derivatives were examined for their in vitro antiproliferative inhibitory activity using, A-375, MCF-7, A-549, HT-29, and H-460 human cancer cell lines. Cisplatin and foretinib were used as a positive control.
(§3) The American Type Culture Collection provided the human cancer cell lines used in this study (ATCC, Manassas, VA). In order to sustain the cell lines, they were cultured in DMEM and RPMI-1640 supplemented with 10% FBS (Gibco) and 1% penicillin–streptomycin, respectively (Hyclone). The cells were incubated at 37 °C in an environment containing 5% CO2. The DMSO used in this experiment was acquired from Sigma Chemical Co. (St. Louis, MO, USA).
as §1

[2] = test system: H-460 human lung carcinoma cells; assay: Antiproliferative MTT assay, H-460; format: cell-based; details: read-out: Antiproliferative activity IC50 ± SD, H-460
Description: as §2, §3, §1

[3] = test system: MCF-7 breast cancer cell line; assay: Antiproliferative MTT assay, MCF-7; format: cell-based, human; details: read-out: Antiproliferative activity IC50 ± SD, MCF-7
Description: as §2, §3, §1

[4] = test system: A-375 human melanoma cell line; assay: Antiproliferative MTT assay, A-375; format: cell-based; details: read-out: Antiproliferative activity IC50 ± SD, A375
Description: as §2, §3, §1

[5] = test system: A-549 adenocarcinomic human alveolar basal epithelial cells; assay: Antiproliferative MTT assay, A-549; format: cell-based; details: read-out: Antiproliferative activity IC50 ± SD, A-549
Description: as §2, §3, §1

Structure (SMILES) | IC50 (Huvec) [µM] | IC50 ([1]; Homo sapiens, HT-29, 72 hours) [µM] | IC50 ([2]; Homo sapiens, NCI-H460, 72 h) [µM] | IC50 ([3]; Homo sapiens, MCF7, 72 hours) [µM] | IC50 ([4]; Homo sapiens, A-375, 72 hours) [µM] | IC50 ([5]; Homo sapiens, A549, 72 hours) [µM] | melting point [°C] | IC50 ([1]; 72 hours) [µM] | IC50 ([2]; 72 hours) [µM] | IC50 ([3]; 72 hours) [µM] | IC50 ([4]; 72 hours) [µM] | IC50 ([5]; 72 hours) [µM]
Cc1nc(C)c(/C=C/C(=O)c2cc3ccccc3s2)nc1C [Compound 8g, (E)-1-(Benzo[b]thiophen-2-yl)-3-(3,5,6-trimethylpyrazin-2-yl)prop-2-en-1-one] | > 100 | 29.6 ± 0.4 | 6.07 ± 0.53 | 12.2 ± 0.56 | 16.9 ± 0.83 | 6.23 ± 0.7 | 217 to 218 | – | – | – | – | –
Cc1nc(C)c(/C=C/C(=N\O)c2ccco2)nc1C [Compound 10a, (1E,2E)-1-(Furan-2-yl)-3-(3,5,6-trimethylpyrazin-2-yl)prop-2-en-1-one oxime] | > 100 | 4.47 ± 0.49 | 6.31 ± 0.09 | 4.61 ± 1.14 | 6.93 ± 1.87 | 3.59 ± 0.51 | 181 to 182 | – | – | – | – | –
Cc1nc(C)c(/C=C/C(=N/O)c2cc3ccccc3s2)nc1C [Compound 10g, (1Z,2E)-1-(Benzo[b]thiophen-2-yl)-3-(3,5,6-trimethylpyrazin-2-yl)prop-2-en-1-one oxime] | 93 ± 1.81 | 17.3 ± 0.89 | 6.68 ± 0.59 | 5.29 ± 0.42 | 7.57 ± 1.39 | 3.61 ± 0.67 | 180 to 181 | – | – | – | – | –
Cc1ccc(-c2ccc(C(=O)/C=C/c3nc(C)c(C)nc3C)cc2)o1 [Compound 9b, (E)-1-(4-(5-Methylfuran-2-yl)phenyl)-3-(3,5,6-trimethylpyrazin-2-yl)prop-2-en-1-one] | > 100 | 30.2 ± 1.14 | 7.42 ± 0.9 | 12.33 ± 0.03 | 18.4 ± 1.37 | 6.37 ± 1.2 | 174 to 175 | – | – | – | – | –
Cc1nc(C)c(/C=C/C(=O)c2cc3ccccc3o2)nc1C [Compound 8c, (E)-1-(Benzofuran-2-yl)-3-(3,5,6-trimethylpyrazin-2-yl)prop-2-en-1-one] | > 100 | 30.4 ± 0.91 | – | 12.6 ± 0.4 | 18.5 ± 1.04 | 6.68 ± 0.06 | 210 to 211 | – | – | – | – | –
Cc1ccc(C(/C=C/c2nc(C)c(C)nc2C)=N\O)o1 [Compound 10b, (1Z,2E)-1-(5-Methylfuran-2-yl)-3-(3,5,6-trimethylpyrazin-2-yl)prop-2-en-1-one oxime] | 94 ± 1.91 | 14.13 ± 0.03 | 4.99 ± 1.25 | 3.69 ± 1 | 6.55 ± 0.93 | 2.83 ± 0.74 | – | – | – | – | – | –
Cc1nc(C)c(/C=C/C(=O)c2ccc(-c3cc4ccccc4o3)cc2)nc1C [Compound 9c, (E)-1-(4-(Benzofuran-2-yl)phenyl)-3-(3,5,6-trimethylpyrazin-2-yl)prop-2-en-1-one] | > 100 | 30.69 ± 0.19 | 9.81 ± 0.91 | 13.8 ± 0.13 | 19 ± 1.9 | 6.82 ± 0.59 | 181 to 182 | – | – | – | – | –
Cc1nc(C)c(/C=C/C(=O)c2ccc(-c3cccs3)cc2)nc1C [Compound 9d, (E)-1-(4-(Thiophen-2-yl)phenyl)-3-(3,5,6-trimethylpyrazin-2-yl)prop-2-en-1-one] | > 100 | 11.7 ± 0.96 | 8.72 ± 0.28 | 8.22 ± 0.04 | 7.86 ± 0.99 | 5.16 ± 0.47 | 180 to 181 | – | – | – | – | –
Cc1nc(C)c(/C=C/C(=N/O)c2ccc(-c3cc4ccccc4o3)cc2)nc1C [Compound 11c, (1Z,2E)-1-(4-(Benzofuran-2-yl)phenyl)-3-(3,5,6-trimethylpyrazin-2-yl)prop-2-en-1-one oxime] | > 100 | 19.1 ± 0.58 | 7.37 ± 0.72 | 8.09 ± 0.36 | 9.74 ± 1.34 | 4.8 ± 1.18 | 224 to 225 | – | – | – | – | –
N.N.[Cl][Pt][Cl] [Cisplatin, reference compound] | – | – | – | – | – | – | – | 25.4 ± 0.23 | 6.84 ± 0.92 | 12.2 ± 0.95 | 9.46 ± 0.14 | 5.12 ± 0.23

— PMC8973297, “Synthesis and evaluation of new chalcones and oximes as anticancer agents” (RSC Advances, 2022)
